Where a name gives a salt, the structure may show the parent alone.
Assays:
[1] = target: PDE4 (Homo sapiens, UniProt Q08499); assay: In-vitro assay for PDE4 enzymes, real-time enzyme-coupled spectrophotometric assay (Table 9); assay type: biochemical; details: human PDE4D; activity class, Table 9; read-out: hPDE4D
[2] = target: PDE4B (Homo sapiens, UniProt Q07343); assay: In-vitro assay for PDE4 enzymes, real-time enzyme-coupled spectrophotometric assay, PDE4B Activity (Table 10); assay type: biochemical; details: human PDE4B (hPDE4B), enzyme-coupled spectrophotometric assay; read-out: PDE4B Activity, hPDE4B
Chain of PDE4B (Q07343 whole entry): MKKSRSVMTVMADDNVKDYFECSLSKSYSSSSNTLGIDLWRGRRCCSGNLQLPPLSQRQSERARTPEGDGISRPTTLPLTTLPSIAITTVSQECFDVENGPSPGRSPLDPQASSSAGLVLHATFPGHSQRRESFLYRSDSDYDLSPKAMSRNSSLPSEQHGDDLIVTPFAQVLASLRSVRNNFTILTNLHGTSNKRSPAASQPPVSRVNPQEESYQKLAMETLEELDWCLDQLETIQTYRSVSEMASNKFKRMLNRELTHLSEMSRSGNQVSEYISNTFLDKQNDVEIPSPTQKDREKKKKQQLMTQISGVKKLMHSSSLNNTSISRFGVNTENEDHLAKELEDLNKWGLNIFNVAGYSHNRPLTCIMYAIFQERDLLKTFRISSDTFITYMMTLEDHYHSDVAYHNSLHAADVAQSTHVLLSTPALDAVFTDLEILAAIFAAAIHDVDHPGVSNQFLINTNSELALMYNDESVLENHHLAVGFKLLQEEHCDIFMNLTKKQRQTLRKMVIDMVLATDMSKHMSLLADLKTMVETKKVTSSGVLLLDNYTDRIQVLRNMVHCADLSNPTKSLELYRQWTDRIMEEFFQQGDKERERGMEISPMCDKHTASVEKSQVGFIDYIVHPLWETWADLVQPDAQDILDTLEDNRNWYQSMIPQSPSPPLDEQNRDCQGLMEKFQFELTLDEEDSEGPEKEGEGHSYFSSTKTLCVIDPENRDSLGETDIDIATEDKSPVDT

Chain of PDE4 (Q08499 whole entry): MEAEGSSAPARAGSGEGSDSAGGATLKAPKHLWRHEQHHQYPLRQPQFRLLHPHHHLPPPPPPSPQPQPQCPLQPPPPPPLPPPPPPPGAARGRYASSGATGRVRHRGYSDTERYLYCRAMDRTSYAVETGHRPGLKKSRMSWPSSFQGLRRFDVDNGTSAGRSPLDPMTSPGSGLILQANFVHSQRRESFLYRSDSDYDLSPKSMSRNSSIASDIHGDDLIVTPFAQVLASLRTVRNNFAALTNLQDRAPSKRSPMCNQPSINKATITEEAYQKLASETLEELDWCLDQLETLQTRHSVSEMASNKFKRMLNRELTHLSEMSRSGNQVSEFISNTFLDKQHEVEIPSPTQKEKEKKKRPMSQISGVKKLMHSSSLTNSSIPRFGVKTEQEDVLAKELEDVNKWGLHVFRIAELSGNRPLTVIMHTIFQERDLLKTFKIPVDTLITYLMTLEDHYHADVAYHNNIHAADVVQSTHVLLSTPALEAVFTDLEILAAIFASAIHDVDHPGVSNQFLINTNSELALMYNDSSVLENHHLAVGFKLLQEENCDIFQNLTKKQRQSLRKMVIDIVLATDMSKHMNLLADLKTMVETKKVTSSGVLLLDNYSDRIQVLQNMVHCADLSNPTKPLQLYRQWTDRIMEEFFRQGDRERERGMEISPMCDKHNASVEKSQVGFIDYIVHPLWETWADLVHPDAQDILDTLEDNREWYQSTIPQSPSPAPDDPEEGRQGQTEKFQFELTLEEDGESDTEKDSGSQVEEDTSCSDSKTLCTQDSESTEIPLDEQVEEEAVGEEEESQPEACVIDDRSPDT

Row | Structure (SMILES) | IC50 [1] | IC50 [2]
1 | O=C1CCCN1Cc1ccc(O)c(-c2cccc([N+](=O)[O-])c2)c1O [P-504, 1-(2,6-Dihydroxy-3′-nitro-biphenyl-3-ylmethyl)-pyrrolidin-2-one] | < 5 µM | 5 to 20 µM
2 | COc1ccc(Cc2ccc(NC(=O)CNC(=O)OC(C)(C)C)cc2)cc1-c1cccc([N+](=O)[O-])c1 [P-143] | < 5 µM | < 5 µM
3 | COc1ccc(Cc2cccc(C(N)=O)c2)cc1-c1cccc(Cl)c1 [P-282, 3-(3′-Chloro-6-methoxy-biphenyl-3-ylmethyl)-benzamide] | < 5 µM | 5 to 20 µM
4 | CNC(=O)NCc1ccc(Cc2ccc(OC(F)F)c(-c3cccc(Cl)c3)c2)cn1 [P-598, 1-[5-(3′-Chloro-6-difluoromethoxy-biphenyl-3-ylmethyl)-pyridin-2-ylmethyl]-3-methyl-urea hydrochloride] | < 5 µM | < 5 µM
5 | COc1ccc(Cn2cc(-c3cnccn3)cn2)c(F)c1-c1cccc(Cl)c1 [P-545, 2-[1-(3′-Chloro-2-fluoro-6-methoxy-biphenyl-3-ylmethyl)-1H-pyrazol-4-yl]-pyrazine] | < 5 µM | < 5 µM
6 | COc1ccc(CN2C(=O)c3cccnc3C2=O)cc1-c1cccc([N+](=O)[O-])c1 [P-055, 6-(6-Methoxy-3′-nitro-biphenyl-3-ylmethyl)-pyrrolo[3,4-b]pyridine-5,7-dione] | < 5 µM | 5 to 20 µM
7 | COc1ccc(Cc2cnc(N(C)CCO)nc2)c(F)c1-c1cccc(Cl)c1 [P-458, 2-{[5-(3′-Chloro-2-fluoro-6-methoxy-biphenyl-3-ylmethyl)-pyrimidin-2-yl]-methyl-amino}-ethanol] | < 5 µM | < 5 µM
8 | COc1ccc(Cc2ccc(NS(C)(=O)=O)cc2)c(F)c1-c1cccc(C(C)=O)c1 [P-249] | < 5 µM | < 5 µM
9 | COc1ccc(COc2ccc(NC(C)=O)cc2)c(F)c1-c1cccc(Cl)c1 [P-594] | < 5 µM | < 5 µM
10 | COc1ccc(C(C)(O)c2ccc(NC(N)=O)cc2)c(F)c1-c1cccc(Cl)c1 (stereo not drawn) [P-441, {4-[1-(3′-chloro-2-fluoro-6-methoxy-biphenyl-3-yl)-1-hydroxy-ethyl]-phenyl}-urea] | < 5 µM | 5 to 20 µM
11 | NC(=O)Nc1ccc(Cc2ccc(OC3CSC3)c(-c3cccc(Cl)c3)c2)cc1 [P-553, {4-[3′-Chloro-6-(thietan-3-yloxy)-biphenyl-3-ylmethyl]-phenyl}-urea] | < 5 µM | < 5 µM
12 | NC(=O)Nc1ccc(Cc2ccc(O)c(-c3cccc(Cl)c3)c2)cc1 [P-421, [4-(3′-Chloro-6-hydroxy-biphenyl-3-ylmethyl)-phenyl]-urea] | < 5 µM | < 5 µM
13 | [2H]C([2H])(c1ccc(NC(N)=O)cc1)c1ccc(OC)c(-c2cccc(Cl)c2)c1F [P-532, {4-[(3′-Chloro-2-fluoro-6-methoxy-biphenyl-3-yl)-bisduetero-methyl]-phenyl}-urea] | < 5 µM | < 5 µM
14 | CCOC(=O)N(CC)c1ccc(Cc2ccc(OC)c(-c3cccc(Cl)c3)c2F)cn1 [P-359] | < 5 µM | 5 to 20 µM
15 | COc1ccc(Cc2ccc(CN3CCNC3=O)nc2)c(F)c1-c1cccc(Cl)c1 [P-374, 1-[5-(3′-Chloro-2-fluoro-6-methoxy-biphenyl-3-ylmethyl)-pyridin-2-ylmethyl]-imidazolidin-2-one] | < 5 µM | < 5 µM
16 | COc1ccc(Cc2cnc(N3CC(O)C3)nc2)c(F)c1-c1cccc(C#N)c1 [P-417, 2′-Fluoro-3′-[2-(3-hydroxy-azetidin-1-yl)-pyrimidin-5-ylmethyl]-6′-methoxy-biphenyl-3-carbonitrile] | < 5 µM | < 5 µM
17 | COc1ccc(CN2CCCC2=O)cc1-c1ccc2c(c1)OCO2 [P-045, 1-(3-Benzo[1,3]dioxol-5-yl-4-methoxy-benzyl)-pyrrolidin-2-one] | 20 to 40 µM | 5 to 20 µM
18 | COc1ccc(Cc2ccccc2CN)cc1-c1cccc([N+](=O)[O-])c1 [P-133] | 5 to 20 µM | 5 to 20 µM
